The results in this text go back to patent US20240342158A1, “METHOD OF TREATING AND/OR PREVENTING TYPE 1 DIABETES WITH CEPHARANTHINE” (ALBERT EINSTEIN COLLEGE OF MEDICINE, priority 2021, published 2024).

The target of experiment [1] is recombinant APS3v-HLA-DR3 (Homo sapiens, UniProt P01903+P01911, A100K/A102G/A103R/F55Y/I96L/K41T/P40S/Q125H/Q178H/Q39Y/R42S/S66N/T106N/W38E/Y61H). Put plainly: ELISA inhibition assay of biotinylated peptide binding to recombinant APS3v-HLA-DR3. The note with it: ELISA inhibition assay, final concentration 0.4 mM. As to the method: An in vitro binding assay was performed. […] On the day before the immunoassay was performed, a 96-well DELFIA yellow plate (PerkinElmer Life Science) was coated overnight with 20 μg/ml of L243 antibody [Hybridoma was purchased from ATCC, catalogue number HB-55, and IgG was purified by QED Bioscience (San Diego, CA)] in bicarbonate buffer, pH 9.6 (Sigma-Aldrich). L243 is a monoclonal antibody that specifically recognizes the DRa chain of HLA-DR when it is properly folded and complexed with the b chain. The plate was then washed with DELFIA wash buffer (diluted 1:25 from DELFIA wash concentrate, PerkinElmer) to wash off the excess L243 antibody. Blocking was performed using 2.5% BSA in PBS at room temperature for 1 h. After washing 4 times, 100 μl of the pre-incubated mix (containing recombinant APS3v-HLA-DR3 protein, APO, and small molecules) were added onto the plate and shaken at slow speed for 2 h at room temperature. After washing 4 times, DELFIA Europium-labeled streptavidin (PerkinElmer) diluted in DELFIA assay buffer (PerkinElmer) was added for 30 min and shaken at slow speed at room temperature. After washing for 6 times, DELFIA Enhancement Solution was added for 1 h until the optimal signal was reached. Time-resolved fluorescence was measured using the BMG reader (BMG Labtech, Cary, NC). A virtual screen identified 100 small molecules that were predicted to block the unique APS3v-HLA-DR3 pocket. To produce a manageable selection of compounds for validation we clustered the 100 compounds by their simplified molecular input line entry system (SMILES) similarity into 20 clusters. Of the 20 clusters we selected the top scoring members in each cluster. We have enhanced this list to include a total of 11 compounds that blocked APS3v-HLA-DR3, the key HLA-DR3 pocket that triggers APS3v. We tested the selected 11 small molecules identified by the virtual screen in our in vitro ELISA, to test whether the 11 small molecules can block APO peptide (the strongest known peptide binder to HLA-DR3) binding to recombinant APS3v-HLA-DR3. Of the 4 validated small molecules we selected S53 for further testing because it is the only one that has been used in humans before. […] ELISA was performed as previously described.
Chain of recombinant APS3v-HLA-DR3 (P01911 30-227 W38E/Q39Y/P40S/K41T/R42S/F55Y/Y61H/S66N/I96L/A100K/A102G/A103R/T106N/Q125H/Q178H): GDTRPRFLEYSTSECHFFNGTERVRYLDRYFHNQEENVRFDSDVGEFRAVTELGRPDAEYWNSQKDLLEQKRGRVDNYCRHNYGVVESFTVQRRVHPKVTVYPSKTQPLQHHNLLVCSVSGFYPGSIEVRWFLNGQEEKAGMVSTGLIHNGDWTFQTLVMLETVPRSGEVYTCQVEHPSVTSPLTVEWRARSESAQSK
Chain of recombinant APS3v-HLA-DR3 (P01903 26-216): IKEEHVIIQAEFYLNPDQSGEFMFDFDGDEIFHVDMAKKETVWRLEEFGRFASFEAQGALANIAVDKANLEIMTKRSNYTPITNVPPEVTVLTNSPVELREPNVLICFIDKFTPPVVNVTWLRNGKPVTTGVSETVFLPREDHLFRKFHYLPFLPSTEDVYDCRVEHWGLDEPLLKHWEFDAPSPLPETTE

Experiment [2] deals with splenocytes and draining lymph node cells of immunized NOD-DR3 mice. Nature of the experiment: Small molecule inhibition of cytokine production ex vivo (Milliplex). Format: cell-based, humanized NOD-DR3 mice. Further details: GAD.492-induced IFN-g production: unit not given here. The conditions noted are these: 1 μM small molecule + GAD.492 20 μg/ml, 48 h; GAD.492 alone 56.3. On the procedure: (§1) Cytokine Assays: Milliplex mouse cytokines/chemokine magnetic panel (Catalog no. MCYTOMAG-70K, EMD Millipore Corporation, Billerica, MA) was used to assay the cytokines, as described in the art. Briefly, splenocytes were plated at 2×10^6 cells per well in 500 μl of medium (RPMI/10% FBS). Supernatants from stimulated lymphocytes were collected 48 h after stimulation with peptides and stored in −80° C. until the assay was performed. The 96-well plate supplied in the kit was washed with the wash buffer supplied and the plate was shaken for 10 min at room temperature. Standards and quality controls were added, followed by the samples. The pre-mixed beads (Interferon gamma and IL-2) were sonicated, vortexed and added to the wells. After shaking the plate overnight at 4° C., the plate was washed twice with wash buffer. Detection antibodies were added for 1 h at room temperature, and Streptavidin-Phycoerythrin was added for 30 min at room temperature. The plate was washed twice and sheath fluid was added to resuspend the beads for 5 min before reading in Luminex 200 with xPONENT software (Luminex, Austin, Texas).
Small Molecule Inhibition of Cytokine Production Ex Vivo: Eight NOD-DR3 mice were immunized with the three thyroidal/islet peptides. Upon sacrifice, splenocytes were incubated with 1 μM of small molecules (S5, S9, S15, S53) together with TPO.758 (20 μg/ml), GAD.492 (20 μg/ml) or Tg.1571 (20 μg/ml) respectively to assess the blockade of these peptides' presentation by the tested small molecules. Supernatants from stimulated lymphocytes were collected 48 h after stimulation with peptides and small molecules, and stored in −80° C. until the cytokine assay was performed. […]

For experiment [3] the test system is unchanged. Put plainly: Interferon gamma response of lymphocytes of co-immunized NOD-DR3 mice to the peptides. The conditions noted are these: lymphocytes of mice co-immunized with Tg.1571, GAD.492 and TPO.758, stimulated 48 hours. The experiment is classed as cell-based, humanized NOD-DR3 mice.
Source text: Induction of T-Cell Response to Islet and Thyroid Autoantigens in Humanized NOD-DR3 Mice as a Model of APS3v: Previously we have identified 4 thyroid and islet peptides that triggered T-cell responses inNOD-DR3mice—Tg.1571,GAD.492, TPO.338 and TPO.758 (12). However, only 3 of these peptides (Tg.1571, GAD.492, and TPO.758) elicited significant B-cell (antibody) responses. Therefore, we concluded that these 3 peptides are the major T-cell epitopes in APS3v and used them to induce a model of APS3v in humanized NOD-DR3mice. To induce the APS3v model, 22 female NOD-DR3 mice 4-6 weeks old were co-immunized subcutaneously with these three peptides: Tg.1571, GAD.492 and TPO.758 (100 μg each peptide), in Complete Freund's Adjuvant (CFA, Sigma-Aldrich). Mice were immunized with peptides on day 0 and boosted on day 7, then sacrificed on day 21. As negative control, humanized NOD-DR3 littermates were immunized with PBS emulsified in CFA.
as §1, with “Texas). […]” for “Texas).”

Consider `Cc1ccc(-c2nnc(Nc3ccc(C(=O)Nc4ccccc4)cc3)c3ccccc23)cc1S(N)(=O)=O` [S5], for which, in experiment [1], the “inhibition of binding of the 3 peptides (TPO.758, GAD.492, Tg.1571) to the HLA-DR3 pocket” value (“inhibition of binding of the 3 peptides” for short) was “significant inhibition of binding for all 3 peptides”.

With `Cc1ccccc1Nc1nnc(-c2ccc(C)c(S(N)(=O)=O)c2)c2ccccc12` [S9], the “inhibition of binding of the 3 peptides” value in experiment [1] was “only blocked GAD.492 and Tg.1571 binding”.

Take `COc1ccc(Nc2nnc(-c3ccc(C)c(S(N)(=O)=O)c3)c3ccccc23)cc1C(N)=O` [S15]: the “inhibition of binding of the 3 peptides” value in experiment [1] is “significant inhibition of binding for all 3 peptides”. In addition, the “GAD.492-induced IFN-g production” value in experiment [2] came out at 30.1.

“GAD.492: glutamic acid decarboxylase 65 (GAD65) peptide REGYEMVFDGKPQHTNVCF (SEQ ID NO: 2) (GAD.492)”: the interferon gamma (IFN-g) response to the peptide in experiment [3] worked out at 99.6 pg/mL.

In experiment [3], “TPO.758: thyroid peroxidase (TPO) peptide ESGRRVLVYSCRHGYELQG (SEQ ID NO: 3) (TPO.758)” registered an interferon gamma (IFN-g) response to the peptide of 717 pg/mL.

In turn, “Tg.1571: thyroglobulin (Tg) peptide EKVPESKVIFDANAPVAVRSKVPDSEF (SEQ ID NO: 1) (Tg.1571)” returned an interferon gamma (IFN-g) response to the peptide in experiment [3] of 24.2 pg/mL.
